Reference: patent publication US20180360100A1 (SCIENTIFIC HOLDINGS, LLC, priority 2017, published 2018)
“Also recorded” adds a separate entry of the source.

What was measured:
CB1 = CB1 (Homo sapiens, UniProt P21554); conditions: cited from earlier work
cannabinoid receptors [1] = conditions: cited from earlier work
CB2 = CB2 (Homo sapiens, UniProt P34972); conditions: cited from earlier work
[2] = Solubilities of pigments in diluents, terpenes and cannabinoids; conditions: in OBP (dipropylene glycol), nexus, terpenes, cannabinoids
Description: Solubilities of Pigments. The present disclosure encompasses solubility embodiments.

cannabinoid receptors [3] = conditions: cited from earlier work; remark: listed apart in the source

Sequence of CB1 (P21554 whole entry, species assumed): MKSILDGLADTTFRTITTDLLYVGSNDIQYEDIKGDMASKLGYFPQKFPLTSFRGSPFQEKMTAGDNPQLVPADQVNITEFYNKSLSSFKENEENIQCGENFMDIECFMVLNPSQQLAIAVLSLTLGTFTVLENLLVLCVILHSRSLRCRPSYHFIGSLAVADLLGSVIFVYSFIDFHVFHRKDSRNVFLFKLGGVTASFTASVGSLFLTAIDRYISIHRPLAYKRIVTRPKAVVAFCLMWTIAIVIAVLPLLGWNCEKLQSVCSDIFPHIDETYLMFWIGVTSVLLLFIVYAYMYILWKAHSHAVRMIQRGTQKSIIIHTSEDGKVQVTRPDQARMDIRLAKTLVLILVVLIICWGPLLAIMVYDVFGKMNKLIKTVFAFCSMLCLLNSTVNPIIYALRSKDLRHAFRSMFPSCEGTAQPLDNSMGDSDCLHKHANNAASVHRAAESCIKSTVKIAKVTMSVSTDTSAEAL
Sequence of CB2 (P34972 whole entry, species assumed): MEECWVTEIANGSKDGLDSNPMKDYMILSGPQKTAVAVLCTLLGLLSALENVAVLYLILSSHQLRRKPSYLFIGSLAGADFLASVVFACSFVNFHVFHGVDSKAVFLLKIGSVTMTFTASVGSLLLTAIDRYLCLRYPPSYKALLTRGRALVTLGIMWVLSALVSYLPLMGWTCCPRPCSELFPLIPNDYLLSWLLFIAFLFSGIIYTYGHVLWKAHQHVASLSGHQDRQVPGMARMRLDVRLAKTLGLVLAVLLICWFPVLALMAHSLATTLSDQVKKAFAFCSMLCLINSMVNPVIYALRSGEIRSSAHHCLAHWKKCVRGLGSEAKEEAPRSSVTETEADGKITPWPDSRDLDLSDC

Row | Compound | binding to CB1 (CB1) | potentiation of binding of 2-arachidonoyl-glycerol (cannabinoid receptors [1]) | binding to CB2 (CB2) | solubility of pigment [2] | potentiation of activity of ligands of cannabinoid receptors (cannabinoid receptors [3])
1 | CCCCC/C=C\C/C=C\CCCCCCCC(=O)OC(CO)CO [2-linoleoyl-glycerol] | do not bind | potentiate the binding of 2-arachidonoyl-glycerol | do not bind | – | –
2 | CCCCCCCCCCCCCCCC(=O)OC(CO)CO [2-palmitoyl-glycerol] | do not bind | potentiate the binding of 2-arachidonoyl-glycerol | do not bind | – | –
3 | CC1=C[C@H](O)CC(C)(C)[C@H]1/C=C/C(C)=C/C=C/C(C)=C/C=C/C=C(C)/C=C/C=C(C)/C=C/C1=C(C)C[C@@H](O)CC1(C)C [Lutein] | – | – | – | soluble in both obp, nexus, terpenes, and cannabinoids | –
4 | CCCCCCCCCCCCCCCC(=O)NCCO [palmitoylethanolamine] | do not bind | – | do not bind | – | potentiate activity of ligands of cannabinoid receptors
5 | CCCCCCCCCCCCCCCCCC(=O)NCCO [stearoylethanolamine] | do not bind | – | do not bind | – | potentiate activity of ligands of cannabinoid receptors
6 | Anthocyanins | – | – | – | only soluble in OBP (dipropylene glycol), not it nexus or cannabinoids alone; also recorded: only soluble in dipropylene glycol (i.e. OBP), not in nexus or cannabinoids alone | –
7 | carotene | – | – | – | soluble in both obp, nexus, terpenes, and cannabinoids | –
